Experimental findings from the supplement of paper PMC5844555 are described below.

Test in all cases: 3' UTR reporter interaction score (median-centred robust z-score of log2 firefly/Renilla activity); higher = less repression of the 3' UTR reporter
Details in all cases: HEK293T; 48 h

One data set concerns MYT1L. Put shortly:
(§1)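 A firefly luc2P reporter carrying the gene's 3' UTR (100 ng), Renilla pRL-TK control (20 ng) and miRNA mimic (2.5 pmol) were co-transfected with DharmaFECT Duo into HEK293T cells plated at 10,000/well in 96-well plates. Luciferase activities were read 48 h post-transfection. The interaction score is the log firefly/Renilla ratio as a per-plate robust z-score from median and median absolute deviation, median-centred per miRNA, and more negative indicates interaction. Values are averages of at least two independent screens.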

The subject of a further data set is NOTCH1. Put shortly:
as §1

The subject of a further data set is HRAS. Put shortly: as §1
Another data set concerns RB1. Put shortly:
as §1

In a further data set the test system is ZEB2. Put shortly:
as §1

The next data set concerns PHF6. In outline: as §1
For the next data set, the system named is TP53. In outline:
as §1

The subject of a further data set is EZH2. In outline: as §1
The next data set has as its system BRCA2. Put shortly: as §1
For another data set, the system named is FBXW7. Put shortly:
as §1

The subject of another data set is MYC. Put shortly: as §1
For a further data set, the system named is PHOX2B. Put shortly:
as §1

Another data set relates to MYCN. In outline:
as §1

The subject of a further data set is MYB. Put shortly: as §1

Turning to CAAAGUUUAAGAUCCUUGAAGU, the “3' UTR reporter interaction score” value was 0.732 with MYT1L; -0.31 with NOTCH1; 0.215 with HRAS; 0.395 in the data set with RB1; -0.576 with ZEB2; 0.33 with PHF6. Further, the “3' UTR reporter interaction score” value with TP53 is -0.363; in the data set with EZH2, 0.55; in the data set on BRCA2, 0.573; with FBXW7, -0.767; with MYC it was -0.333; with PHOX2B, -2.34. In addition, the figures for the “3' UTR reporter interaction score” value with MYCN and with MYB were -0.796 and 0.577, respectively.

Consider CAACCUGGAGGACUCCAUGCUG, for which the “3' UTR reporter interaction score” value in the data set on MYT1L was 0.329; in the data set on NOTCH1, -0.127; in the data set on HRAS, 0.685; in the data set on RB1, -2.92; in the data set on ZEB2, 0.335; in the data set on PHF6 it was -0.934. Further, the “3' UTR reporter interaction score” value in the data set with TP53 was 0.0572; in the data set on EZH2, 0.157; in the data set on BRCA2 it was 0.635; in the data set with FBXW7, 0.0371; in the data set on MYC it was 0.486; in the data set on PHOX2B, -0.796. The “3' UTR reporter interaction score” value came out at 0.831 with MYCN and 1.15 with MYB.

In the case of UGAAACAUACACGGGAAACCUCUU, the “3' UTR reporter interaction score” value in the data set with MYT1L is 0.0487; in the data set on NOTCH1 it was 2.03; in the data set with HRAS it was -0.108; with RB1, -0.893; in the data set with ZEB2, 0.135; in the data set on PHF6, 2.68. Further, the “3' UTR reporter interaction score” value in the data set on TP53 is -0.757; in the data set on EZH2, 0.948; in the data set with BRCA2, 0.436; in the data set with FBXW7, 1.59; in the data set on MYC, -4.26; in the data set on PHOX2B it was -0.468. The “3' UTR reporter interaction score” value in the data set on MYCN is -2.74; with MYB, -0.521.

On to GAAAACAGCAAUUACCUUUGCA, for which the “3' UTR reporter interaction score” value is -0.261 in the data set with MYT1L; -1.34 in the data set with NOTCH1; -0.7 with HRAS; 0.347 in the data set with RB1; 0.263 in the data set on ZEB2; -0.427 in the data set on PHF6. For the same sequence, the “3' UTR reporter interaction score” value in the data set with TP53 is -0.0426; in the data set with EZH2, 0.37; in the data set on BRCA2, 0.212; with FBXW7, 0.0135; in the data set on MYC it was -0.413; in the data set on PHOX2B it was 0.0564. For the same sequence, the entries for the “3' UTR reporter interaction score” value in the data set on MYCN and in the data set with MYB were 0.734 and -1.17, respectively.

Regarding UGAGCUGCUGUACCAAAAU, the “3' UTR reporter interaction score” value in the data set on MYT1L is 0.273; in the data set on NOTCH1 it was 0.526; in the data set with HRAS, -0.0544; in the data set with RB1, 0.104; in the data set with ZEB2 it was 0.288; with PHF6, 0.476. Also, the “3' UTR reporter interaction score” value was -0.00622 in the data set with TP53; -0.391 in the data set on EZH2; -0.363 in the data set on BRCA2; 0.267 in the data set with FBXW7; -0.354 in the data set with MYC; 1.09 with PHOX2B. Further, the “3' UTR reporter interaction score” value was -1.43 in the data set on MYCN and -0.26 in the data set on MYB.

On to UUAUCAGAAUCUCCAGGGGUAC, for which the “3' UTR reporter interaction score” value in the data set on MYT1L was -0.147; in the data set with NOTCH1 it was 0.0518; with HRAS it was 0.803; in the data set with RB1, -0.955; with ZEB2 it was 0.799; in the data set with PHF6 it was 0.08. Moreover, the “3' UTR reporter interaction score” value in the data set on TP53 is -0.646; in the data set with EZH2 it was -0.893; in the data set on BRCA2, 0.769; in the data set on FBXW7 it was 0.189; in the data set on MYC, 1.44; with PHOX2B it was -1.55. For the same sequence, the results for the “3' UTR reporter interaction score” value with MYCN and in the data set with MYB were -0.164 and 1.26, respectively.

In the case of AUUCUAAUUUCUCCACGUCUUUG, the “3' UTR reporter interaction score” value in the data set on MYT1L was 0.697; with NOTCH1, -0.432; in the data set on HRAS, 0.632; in the data set with RB1 it was -2.85; with ZEB2, -0.49; in the data set on PHF6, -1.02. Moreover, the “3' UTR reporter interaction score” value was 0.345 in the data set with TP53; -4.24 in the data set on EZH2; -0.103 in the data set on BRCA2; -0.826 in the data set with FBXW7; 0.0131 with MYC; 0.107 in the data set with PHOX2B. The “3' UTR reporter interaction score” value in the data set on MYCN was 0.587; in the data set with MYB it was 0.162.

Consider AAAGUGCAUCCUUUUAGAGUGUUAC, for which the “3' UTR reporter interaction score” value in the data set with MYT1L was -1.2; in the data set with NOTCH1 it was 2.14; in the data set with HRAS it was 0.648; in the data set with RB1, 0.0975; with ZEB2 it was 0.599; in the data set on PHF6, -0.315. For the same sequence, the “3' UTR reporter interaction score” value in the data set with TP53 is 1.22; in the data set with EZH2, -0.596; with BRCA2, -0.464; with FBXW7 it was 0.956; with MYC, 0.046; in the data set with PHOX2B, -0.251. The “3' UTR reporter interaction score” value in the data set on MYCN was 1.43; in the data set on MYB, -1.8.

Regarding UACAGUAUAGAUGAUGUACUAG, the “3' UTR reporter interaction score” value is 0.926 with MYT1L; 0.141 with NOTCH1; -0.991 with HRAS; 0.00103 in the data set with RB1; 0.857 in the data set on ZEB2; 0.845 in the data set on PHF6. In addition, the “3' UTR reporter interaction score” value in the data set on TP53 is 0.564; in the data set with EZH2 it was 0.0925; in the data set on BRCA2, -0.483; in the data set with FBXW7, -1.17; with MYC, -0.27; with PHOX2B it was 1.45. The “3' UTR reporter interaction score” value with MYCN was -0.388; in the data set on MYB it was 1.2.

Take UUCAAGUAAUCCAGGAUAGGC: the “3' UTR reporter interaction score” value with MYT1L is 1.27; in the data set with NOTCH1 it was 1.68; in the data set on HRAS, -0.41; in the data set on RB1, -0.662; in the data set with ZEB2, -0.465; with PHF6, -0.0329. Besides, the “3' UTR reporter interaction score” value was 0.423 in the data set on TP53; -4.57 with EZH2; 1.36 with BRCA2; 1.99 in the data set on FBXW7; -1.71 in the data set with MYC; -0.534 with PHOX2B. For the same sequence, the “3' UTR reporter interaction score” value was -0.368 in the data set with MYCN and 1.11 in the data set on MYB.
